Test results from US11320434B2, “Method and apparatus for rapid detection of SARS-CoV-2” (priority 2020, dated 2022).

Key:
[1] = target: T1, K9K peptide ([…], SARS-CoV-2 spike protein position 1245 to 1255) (Severe acute respiratory syndrome coronavirus 2, UniProt P0DTC2); assay type: binding
T1 construct: purchased Innovagen AB

[2] = test system: tetracysteine-containing peptide; settings: peptide-bound versus free FlAsH-EDT2; cited from earlier work

SMILES: O=C(O)c1ccccc1-c1c2ccc(=O)c([As]3SCCS3)c-2oc2c([As]3SCCS3)c(O)ccc12 [FlAsH, 2-(4,5-di(1,3,2-dithiarsolan-2-yl)-6-hydroxy-3-oxo-3H-xanthen-9-yl)benzoic acid]
- change of fluorescence after heating the mixture [1]: more than doubled
- effect of a reducing agent on emitted fluorescence [1]: can be enhanced
- emission of K9K-FlAsH versus FlAsH Control [1]: meaningfully greater
- emitted fluorescence versus Control at K9K dilutions [1]: meaningful increases over the Control
- fluorescence after prior oxidation of K9K cysteine residues by DTNB (Curve 2) [1]: prevents generation of fluorescence
- fluorescence after treatment of oxidized K9K with TCEP (Curve 3) [1]: recovery of fluorescence
- fluorescence on treatment of peptide K9K with FlAsH (Curve 1) [1]: rapidly generate intense fluorescence emission
- fluorescence with TCEP and heating versus without TCEP or heating [1]: nearly six times greater
- time at which emission of fluorescence begins [1]: ≤ 15 s
- increase in fluorescence upon exchanging the EDTs for a tetracysteine-containing peptide [2]: more than 50,000 times
